From patent US20220389061A1, “IMMUNOMODULATORS” (priority 2019, published 2022)
Starred links: 1 amine or outer side, 2 acyl side, 3 side chain; linkers in the order of their positions; H or OH if unused. Positions of bridges follow the written chain, without caps; N, C: chain ends. Non-standard residues stand in square brackets, D forms with d. Residues, ends and D or L forms follow the SMILES beside them. Groups on a side chain read outwards from the residue. *: point of attachment. Trp(1-CH2CO2Me) = COC(=O)Cn1cc(C[C@H](N)C(=O)O)c2ccccc21; Trp(1-CH2COOH) = N[C@@H](Cc1cn(CC(=O)O)c2ccccc12)C(=O)O; X73 = FC(F)(F)c1cc(NC(=S)*)cc(C(F)(F)F)c1; X79 = CCn1c2ccccc2c2cc(NC(=S)*)ccc21; X88 = Cc1cc([N+](=O)[O-])ccc1NC(=S)*; X1 = S=C(Nc1ccc2c(c1)Cc1ccccc1-2)*; X75 = S=C(Nc1ccc(C2CC2)c2ccccc12)*; X49 = N#Cc1ccccc1NC(=N)c1ccccc1N*; Hyp = O=C(O)[C@@H]1C[C@@H](O)CN1; X25 = FC(F)(F)Oc1ccc(NC(=S)*)cc1; X3 = S=C(Nc1ccc(Oc2ccccc2)cc1)*; X91 = Cc1cc(NC(=S)*)c2ccccc2n1; NMeNle = CCCC[C@H](NC)C(=O)O; X7 = S=C(Nc1ccc2cc[nH]c2c1)*; X59 = S=C(Nc1ccc2nsnc2c1)*; X48 = O=C(c1ccc2ccoc2c1)*; NMeA = CN[C@@H](C)C(=O)O; Dab = NCC[C@H](N)C(=O)O; X45 = c1ccc2sc(N*)cc2c1; Dap = NC[C@H](N)C(=O)O; CO = O=C([*:1])[*:2]

Biological target: T1, PD-1/PD-L1 (Homo sapiens, UniProt Q9NZQ7)
T1 construct: TVMV protease site linker (C); made in house; host or cells: HEK293T cells
Assay: PD-1/PD-L1 Homogenous Time-Resolved Fluorescence (HTRF) binding assay
Conditions: PD-L1-His 10 nM pre-incubated with inhibitor, PD-1-Ig 20 nM; read-out: HTRF IC50
Method in brief: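 Compounds preincubated 15 min with PD-L1-His (10 nM final), then PD-1-Ig (20 nM final) added for 15 min in dPBS with 0.1% BSA, 0.05% Tween-20. Detection by Eu-cryptate anti-Ig (1 nM) and APC anti-His (20 nM) HTRF.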

T1 sequence (Q9NZQ7 18-239): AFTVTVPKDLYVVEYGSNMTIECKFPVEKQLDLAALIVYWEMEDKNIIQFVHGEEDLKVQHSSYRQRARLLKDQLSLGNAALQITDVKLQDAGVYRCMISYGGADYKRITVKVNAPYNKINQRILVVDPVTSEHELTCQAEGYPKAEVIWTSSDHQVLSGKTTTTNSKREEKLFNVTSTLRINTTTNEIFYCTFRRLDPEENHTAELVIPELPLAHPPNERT

IC50 [nM] | SMILES
7.1 | CCCC[C@H]1C(=O)N(C)[C@@H](CCCC)C(=O)N[C@@H](CC(C)C)C(=O)N[C@H](C(=O)NCC(N)=O)CSCC(=O)N[C@@H](Cc2ccc(O)cc2)C(=O)N(C)[C@@H](C)C(=O)N[C@@H](CC(N)=O)C(=O)N2CCC[C@H]2C(=O)N[C@@H](CNC(=S)Nc2ccc(OC(F)(F)F)cc2)C(=O)N[C@@H](CC(C)C)C(=O)N2C[C@H](O)C[C@H]2C(=O)N[C@@H](Cc2c[nH]c3ccccc23)C(=O)N[C@@H](CCNC(=S)Nc2ccc(OC(F)(F)F)cc2)C(=O)N[C@@H](Cc2cn(CC(=O)O)c3ccccc23)C(=O)N1C [Example 1010] ({CH2CO}-Y[NMeA]NP[Dap](X25)L[Hyp]W[Dab](X25)[Trp(1-CH2COOH)][NMeNle][NMeNle]LCG-NH2; thioether N-14)
5.6 | CCCC[C@H]1C(=O)N(C)[C@@H](CCCC)C(=O)N[C@@H](CC(C)C)C(=O)N[C@H](C(=O)NCC(N)=O)CSCC(=O)N[C@@H](Cc2ccc(O)cc2)C(=O)N(C)[C@@H](C)C(=O)N[C@@H](CC(N)=O)C(=O)N2CCC[C@H]2C(=O)N[C@@H](CNC(=S)Nc2ccc3nsnc3c2)C(=O)N[C@@H](CC(C)C)C(=O)N2C[C@H](O)C[C@H]2C(=O)N[C@@H](Cc2c[nH]c3ccccc23)C(=O)N[C@@H](CCNC(=S)Nc2ccc3nsnc3c2)C(=O)N[C@@H](Cc2cn(CC(=O)OC)c3ccccc23)C(=O)N1C [Example 3056] ({CH2CO}-Y[NMeA]NP[Dap](X59)L[Hyp]W[Dab](X59)[Trp(1-CH2CO2Me)][NMeNle][NMeNle]LCG-NH2; thioether N-14)
8.1 | CCCC[C@H]1C(=O)N(C)[C@@H](CCCC)C(=O)N[C@@H](CC(C)C)C(=O)N[C@H](C(=O)NCC(N)=O)CSCC(=O)N[C@@H](Cc2ccc(O)cc2)C(=O)N(C)[C@@H](C)C(=O)N[C@@H](CC(N)=O)C(=O)N2CCC[C@H]2C(=O)N[C@@H](CNC(=S)Nc2ccc3c(c2)c2ccccc2n3CC)C(=O)N[C@@H](CC(C)C)C(=O)N2C[C@H](O)C[C@H]2C(=O)N[C@@H](Cc2c[nH]c3ccccc23)C(=O)N[C@@H](CCNC(=S)Nc2ccc3c(c2)c2ccccc2n3CC)C(=O)N[C@@H](Cc2cn(CC(=O)O)c3ccccc23)C(=O)N1C [Example 2013] ({CH2CO}-Y[NMeA]NP[Dap](X79)L[Hyp]W[Dab](X79)[Trp(1-CH2COOH)][NMeNle][NMeNle]LCG-NH2; thioether N-14)
5.7 | CCCC[C@H]1C(=O)N(C)[C@@H](CCCC)C(=O)N[C@@H](CC(C)C)C(=O)N[C@H](C(=O)NCC(N)=O)CSCC(=O)N[C@@H](Cc2ccc(O)cc2)C(=O)N(C)[C@@H](C)C(=O)N[C@@H](CC(N)=O)C(=O)N2CCC[C@H]2C(=O)N[C@@H](CNC(=O)Nc2ccccc2C(=N)Nc2ccccc2C#N)C(=O)N[C@@H](CC(C)C)C(=O)N2C[C@H](O)C[C@H]2C(=O)N[C@@H](Cc2c[nH]c3ccccc23)C(=O)N[C@@H](CCN)C(=O)N[C@@H](Cc2cn(CC(=O)O)c3ccccc23)C(=O)N1C [Example 1097] ({CH2CO}-Y[NMeA]NP[Dap]([CO-X49])L[Hyp]W[Dab][Trp(1-CH2COOH)][NMeNle][NMeNle]LCG-NH2; thioether N-14)
3.4 | CCCC[C@H]1C(=O)N(C)[C@@H](CCCC)C(=O)N[C@@H](CC(C)C)C(=O)N[C@H](C(=O)NCC(N)=O)CSCC(=O)N[C@@H](Cc2ccc(O)cc2)C(=O)N(C)[C@@H](C)C(=O)N[C@@H](CC(N)=O)C(=O)N2CCC[C@H]2C(=O)N[C@@H](CNC(=S)Nc2cc(C)nc3ccccc23)C(=O)N[C@@H](CC(C)C)C(=O)N2C[C@H](O)C[C@H]2C(=O)N[C@@H](Cc2c[nH]c3ccccc23)C(=O)N[C@@H](CCN)C(=O)N[C@@H](Cc2cn(CC(=O)O)c3ccccc23)C(=O)N1C [Example 3053] ({CH2CO}-Y[NMeA]NP[Dap](X91)L[Hyp]W[Dab][Trp(1-CH2COOH)][NMeNle][NMeNle]LCG-NH2; thioether N-14)
4.9 | CCCC[C@H]1C(=O)N(C)[C@@H](CCCC)C(=O)N[C@@H](CC(C)C)C(=O)N[C@H](C(=O)NCC(N)=O)CSCC(=O)N[C@@H](Cc2ccc(O)cc2)C(=O)N(C)[C@@H](C)C(=O)N[C@@H](CC(N)=O)C(=O)N2CCC[C@H]2C(=O)N[C@@H](CNC(=S)Nc2ccc([N+](=O)[O-])cc2C)C(=O)N[C@@H](CC(C)C)C(=O)N2C[C@H](O)C[C@H]2C(=O)N[C@@H](Cc2c[nH]c3ccccc23)C(=O)N[C@@H](CCN)C(=O)N[C@@H](Cc2cn(CC(=O)O)c3ccccc23)C(=O)N1C [Example 1072] ({CH2CO}-Y[NMeA]NP[Dap](X88)L[Hyp]W[Dab][Trp(1-CH2COOH)][NMeNle][NMeNle]LCG-NH2; thioether N-14)
3 | CCCC[C@H]1C(=O)N(C)[C@@H](CCCC)C(=O)N[C@@H](CC(C)C)C(=O)N[C@H](C(=O)NCC(N)=O)CSCC(=O)N[C@@H](Cc2ccc(O)cc2)C(=O)N(C)[C@@H](C)C(=O)N[C@@H](CC(N)=O)C(=O)N2CCC[C@H]2C(=O)N[C@@H](CNC(=S)Nc2ccc(C3CC3)c3ccccc23)C(=O)N[C@@H](CC(C)C)C(=O)N2C[C@H](O)C[C@H]2C(=O)N[C@@H](Cc2c[nH]c3ccccc23)C(=O)N[C@@H](CCN)C(=O)N[C@@H](Cc2cn(CC(=O)O)c3ccccc23)C(=O)N1C [Example 3044] ({CH2CO}-Y[NMeA]NP[Dap](X75)L[Hyp]W[Dab][Trp(1-CH2COOH)][NMeNle][NMeNle]LCG-NH2; thioether N-14)
11 | CCCC[C@H]1C(=O)N(C)[C@@H](CCCC)C(=O)N[C@@H](CC(C)C)C(=O)N[C@H](C(=O)NCC(N)=O)CSCC(=O)N[C@@H](Cc2ccc(O)cc2)C(=O)N(C)[C@@H](C)C(=O)N[C@@H](CC(N)=O)C(=O)N2CCC[C@H]2C(=O)N[C@@H](CNC(=O)Nc2cc3ccccc3s2)C(=O)N[C@@H](CC(C)C)C(=O)N2C[C@H](O)C[C@H]2C(=O)N[C@@H](Cc2c[nH]c3ccccc23)C(=O)N[C@@H](CCNC(=O)Nc2cc3ccccc3s2)C(=O)N[C@@H](Cc2cn(CC(=O)O)c3ccccc23)C(=O)N1C [Example 3022] ({CH2CO}-Y[NMeA]NP[Dap]([CO-X45])L[Hyp]W[Dab]([CO-X45])[Trp(1-CH2COOH)][NMeNle][NMeNle]LCG-NH2; thioether N-14)
3.4 | CCCC[C@H]1C(=O)N(C)[C@@H](CCCC)C(=O)N[C@@H](CC(C)C)C(=O)N[C@H](C(=O)NCC(N)=O)CSCC(=O)N[C@@H](Cc2ccc(O)cc2)C(=O)N(C)[C@@H](C)C(=O)N[C@@H](CC(N)=O)C(=O)N2CCC[C@H]2C(=O)N[C@@H](CNC(=S)Nc2ccc(Oc3ccccc3)cc2)C(=O)N[C@@H](CC(C)C)C(=O)N2C[C@H](O)C[C@H]2C(=O)N[C@@H](Cc2c[nH]c3ccccc23)C(=O)N[C@@H](CCNC(=S)Nc2ccc(Oc3ccccc3)cc2)C(=O)N[C@@H](Cc2cn(CC(=O)O)c3ccccc23)C(=O)N1C [Example 1080] ({CH2CO}-Y[NMeA]NP[Dap](X3)L[Hyp]W[Dab](X3)[Trp(1-CH2COOH)][NMeNle][NMeNle]LCG-NH2; thioether N-14)
3.7 | CCCC[C@H]1C(=O)N(C)[C@@H](CCCC)C(=O)N[C@@H](CC(C)C)C(=O)N[C@H](C(=O)NCC(N)=O)CSCC(=O)N[C@@H](Cc2ccc(O)cc2)C(=O)N(C)[C@@H](C)C(=O)N[C@@H](CC(N)=O)C(=O)N2CCC[C@H]2C(=O)N[C@@H](CNC(=S)Nc2ccc3c(c2)Cc2ccccc2-3)C(=O)N[C@@H](CC(C)C)C(=O)N2C[C@H](O)C[C@H]2C(=O)N[C@@H](Cc2c[nH]c3ccccc23)C(=O)N[C@@H](CCN)C(=O)N[C@@H](Cc2cn(CC(=O)O)c3ccccc23)C(=O)N1C [Example 2010] ({CH2CO}-Y[NMeA]NP[Dap](X1)L[Hyp]W[Dab][Trp(1-CH2COOH)][NMeNle][NMeNle]LCG-NH2; thioether N-14)
87 | CCCC[C@H]1C(=O)N(C)[C@@H](CCCC)C(=O)N[C@@H](CC(C)C)C(=O)N[C@H](C(=O)NCC(N)=O)CSCC(=O)N[C@@H](Cc2ccc(O)cc2)C(=O)N(C)[C@@H](C)C(=O)N[C@@H](CC(N)=O)C(=O)N2CCC[C@H]2C(=O)N[C@@H](CNC(=S)Nc2cc(C(F)(F)F)cc(C(F)(F)F)c2)C(=O)N[C@@H](CC(C)C)C(=O)N2C[C@H](O)C[C@H]2C(=O)N[C@@H](Cc2c[nH]c3ccccc23)C(=O)N[C@@H](CCNC(=S)Nc2cc(C(F)(F)F)cc(C(F)(F)F)c2)C(=O)N[C@@H](Cc2cn(CC(=O)O)c3ccccc23)C(=O)N1C [Example 1124] ({CH2CO}-Y[NMeA]NP[Dap](X73)L[Hyp]W[Dab](X73)[Trp(1-CH2COOH)][NMeNle][NMeNle]LCG-NH2; thioether N-14)
8.2 | CCCC[C@H]1C(=O)N(C)[C@@H](CCCC)C(=O)N[C@@H](CC(C)C)C(=O)N[C@H](C(=O)NCC(N)=O)CSCC(=O)N[C@@H](Cc2ccc(O)cc2)C(=O)N(C)[C@@H](C)C(=O)N[C@@H](CC(N)=O)C(=O)N2CCC[C@H]2C(=O)N[C@@H](CNC(=O)c2ccc3ccoc3c2)C(=O)N[C@@H](CC(C)C)C(=O)N2C[C@H](O)C[C@H]2C(=O)N[C@@H](Cc2c[nH]c3ccccc23)C(=O)N[C@@H](CCNC(=O)c2ccc3ccoc3c2)C(=O)N[C@@H](Cc2cn(CC(=O)OC)c3ccccc23)C(=O)N1C [Example 3011] ({CH2CO}-Y[NMeA]NP[Dap](X48)L[Hyp]W[Dab](X48)[Trp(1-CH2CO2Me)][NMeNle][NMeNle]LCG-NH2; thioether N-14)
4.3 | CCCC[C@H]1C(=O)N(C)[C@@H](CCCC)C(=O)N[C@@H](CC(C)C)C(=O)N[C@H](C(=O)NCC(N)=O)CSCC(=O)N[C@@H](Cc2ccc(O)cc2)C(=O)N(C)[C@@H](C)C(=O)N[C@@H](CC(N)=O)C(=O)N2CCC[C@H]2C(=O)N[C@@H](CNC(=S)Nc2ccc3cc[nH]c3c2)C(=O)N[C@@H](CC(C)C)C(=O)N2C[C@H](O)C[C@H]2C(=O)N[C@@H](Cc2c[nH]c3ccccc23)C(=O)N[C@@H](CCNC(=S)Nc2ccc3cc[nH]c3c2)C(=O)N[C@@H](Cc2cn(CC(=O)O)c3ccccc23)C(=O)N1C [Example 3002] ({CH2CO}-Y[NMeA]NP[Dap](X7)L[Hyp]W[Dab](X7)[Trp(1-CH2COOH)][NMeNle][NMeNle]LCG-NH2; thioether N-14)
